Experimental data reported in ChEMBL document CHEMBL1201862, “PubChem BioAssay data set” (2004).
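All cell lines were grown in 96-well plates and treated with compound for 48 hours. Abbreviation: GI50, concentration required for 50% inhibition of growth.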 The source made the active and inactive calls. Rule as the data show it: active = GI50 up to about 1.1 µM and inactive = higher.

How the values were obtained:
Assay in all cases: inhibition of tumour cell growth, NCI panel, 48 h
[1] = test system: HOP-62
[2] = test system: A498
[3] = test system: NCI-H226
[4] = test system: SK-MEL-2
[5] = test system: UACC-257
[6] = test system: SNB-78
[7] = test system: UACC-62
[8] = test system: M14
[9] = test system: HCC 2998
[10] = test system: Malme-3M
[11] = test system: SF-295
[12] = test system: SNB-75
[13] = test system: EKVX
[14] = test system: HOP-92
[15] = test system: OVCAR-5
[16] = test system: PC-3
[17] = test system: BT-549
[18] = test system: MDA-MB-231
[19] = test system: T47D
[20] = test system: Hs-578T

Measured: GI50

COc1cc2c3c(c1OC)C(=O)C=C3N(S(=O)(=O)c1ccc(C)cc1)CC2
inactive: [1] 64.3 µM | [2] > 100 µM | [3] > 100 µM | [4] > 100 µM | [5] > 100 µM | [6] > 100 µM | [7] > 100 µM | [8] > 100 µM | [9] > 100 µM | [10] > 100 µM | [11] 77.8 µM | [12] 46.9 µM | [13] > 100 µM | [14] > 100 µM | [15] > 100 µM

Cc1ccc(NC(=O)CCc2nnc(N)o2)cc1
inactive: [1] > 100 µM | [2] > 100 µM | [3] > 100 µM | [4] > 100 µM | [5] > 100 µM | [6] > 100 µM | [7] > 100 µM | [8] > 100 µM | [9] > 100 µM | [10] > 100 µM | [11] > 100 µM | [12] > 100 µM | [13] > 100 µM | [14] > 100 µM | [15] > 100 µM

CCOC(=O)C1=C(O)C(=O)c2cc(OC)ccc2C1=O
inactive: [1] > 100 µM | [2] > 100 µM | [3] 38.5 µM | [4] > 100 µM | [5] 35.1 µM | [6] > 100 µM | [7] > 100 µM | [8] > 100 µM | [9] > 100 µM | [10] > 100 µM | [11] 84.9 µM | [12] 20.9 µM | [13] > 100 µM | [14] > 100 µM | [15] > 100 µM

Nc1ncnc2c1ncn2C1OC(CSC(F)F)C(O)C1O (stereo not drawn)
inactive: [1] > 100 µM | [2] > 100 µM | [3] > 100 µM | [4] > 100 µM | [5] > 100 µM | [6] > 100 µM | [7] > 100 µM | [8] > 100 µM | [9] > 100 µM | [10] > 100 µM | [11] > 100 µM | [12] > 100 µM | [13] > 100 µM | [14] > 100 µM | [15] > 100 µM

CCOC(=O)NC(=O)c1cn(CCN2CCNCC2)c(=O)[nH]c1=O
inactive: [1] > 100 µM | [3] > 100 µM | [4] > 100 µM | [6] > 100 µM | [7] > 100 µM | [8] > 100 µM | [11] > 100 µM | [13] > 100 µM | [14] > 100 µM | [15] > 100 µM

O=S1(=O)CS(=O)(=O)OCCCCCO1
inactive: [2] > 100 µM | [3] > 100 µM | [4] > 100 µM | [5] > 100 µM | [6] > 100 µM | [7] > 100 µM | [8] > 100 µM | [9] > 100 µM | [10] > 100 µM | [12] > 100 µM | [13] > 100 µM | [14] > 100 µM | [15] > 100 µM

C[N+]1(C)C/C(=C\c2ccc(O)cc2)C(=O)/C(=C/c2ccc(O)cc2)C1
inactive: [1] > 100 µM | [2] 85.1 µM | [5] > 100 µM | [6] > 100 µM | [7] 64.9 µM | [8] > 100 µM | [9] > 100 µM | [10] > 100 µM | [11] 63.2 µM | [12] > 100 µM | [13] > 100 µM | [14] > 100 µM | [15] > 100 µM

Cc1c(C(=O)c2ccccc2C(=O)O)c2ccccc2n1C
inactive: [1] > 100 µM | [2] > 100 µM | [3] > 100 µM | [4] > 100 µM | [5] > 100 µM | [6] > 100 µM | [7] > 100 µM | [8] > 100 µM | [9] > 100 µM | [10] > 100 µM | [11] > 100 µM | [12] > 100 µM | [13] > 100 µM | [15] > 100 µM

CC(C)(C)C#COC(=O)c1ccccc1
inactive: [1] > 100 µM | [2] > 100 µM | [3] > 100 µM | [4] > 100 µM | [5] > 100 µM | [6] > 100 µM | [7] > 100 µM | [8] > 100 µM | [9] > 100 µM | [10] > 100 µM | [11] > 100 µM | [13] > 100 µM | [15] > 100 µM

Cc1ccc(/C=C(\C#N)c2ccccc2)cc1
inactive: [1] > 100 µM | [2] > 100 µM | [3] > 100 µM | [4] > 100 µM | [5] > 100 µM | [6] > 100 µM | [7] > 100 µM | [8] > 100 µM | [9] > 100 µM | [11] > 100 µM | [12] > 100 µM | [14] > 100 µM | [15] > 100 µM

CCOC(=O)[C@H]1Nc2ccc(Cl)cc2[C@H]2CCC[C@@H]12
inactive: [1] > 100 µM | [3] > 100 µM | [4] > 100 µM | [5] 22 µM | [6] > 100 µM | [7] > 100 µM | [8] > 100 µM | [9] > 100 µM | [10] > 100 µM | [11] 55.3 µM | [12] 72.3 µM | [13] 92.3 µM | [15] 63.5 µM

CC(C)N(C(=O)C12C3C4C1C1C4(C#N)C3C12C(=O)O)C(C)C (stereo not drawn)
inactive: [1] > 100 µM | [2] > 100 µM | [3] > 100 µM | [4] > 100 µM | [5] > 100 µM | [6] > 100 µM | [7] > 100 µM | [8] > 100 µM | [9] > 100 µM | [10] > 100 µM | [11] > 100 µM | [12] > 100 µM | [13] > 100 µM | [14] > 100 µM | [15] > 100 µM

CN(C)CC/C(=N\Nc1c(F)c(F)c(F)c(F)c1F)c1ccccc1
inactive: [1] > 10 µM | [2] 74.5 µM | [4] 32.7 µM | [5] 24.1 µM | [6] 41.1 µM | [7] 34.5 µM | [8] > 10 µM | [10] 36.9 µM | [11] 38.5 µM | [12] 3.35 µM | [13] > 100 µM | [15] 49.9 µM

OC1CC(O)O[C@H](c2ccccc2)C1 (stereo partly drawn)
inactive: [1] > 100 µM | [2] > 100 µM | [3] > 100 µM | [5] > 100 µM | [6] > 100 µM | [7] > 100 µM | [8] > 100 µM | [9] > 100 µM | [10] > 100 µM | [11] > 100 µM | [12] > 100 µM | [13] > 100 µM | [14] > 100 µM | [15] > 100 µM

C[C@H]1[C@H](C)CC[C@]2(C(=O)O)CCC3(COC(=O)/C=C/c4ccc(O)cc4)C(=CCC4[C@@]5(C)CC[C@H](O)C(C)(C)C5CC[C@]43C)[C@H]12 (stereo partly drawn)
inactive: [1] 7.82 µM | [2] 4.06 µM | [3] 7.91 µM | [4] 19.1 µM | [5] 14.7 µM | [6] 43.8 µM | [7] 9.4 µM | [8] 11.2 µM | [9] 5.45 µM | [10] 19.3 µM | [11] 3.72 µM | [12] 10.2 µM | [13] 11 µM | [15] 14.8 µM

CC(=O)OC1C[C@H]2C(OC(=O)c3ccccc3)C3C4(OC(C)=O)COC4C[C@H](OC(C)=O)[C@@]3(C)C(OC(C)=O)[C@H](OC(C)=O)C(=C1C)C2(C)C (stereo partly drawn)
inactive: [1] 40 µM | [2] 24.4 µM | [3] 34.1 µM | [4] 33.3 µM | [5] 58.6 µM | [6] 37.9 µM | [7] 77.1 µM | [8] 23.2 µM | [10] 71.8 µM | [11] 33.5 µM | [12] 14.3 µM | [13] 50.7 µM | [15] > 100 µM

c1ccc2nc(-c3ccc4c(c3)OCO4)ccc2c1
inactive: [1] 22 µM | [3] 21.6 µM | [4] 41.3 µM | [5] 15.6 µM | [6] 77.6 µM | [8] 54.2 µM | [9] 38.3 µM | [10] 18 µM | [11] 46.7 µM | [12] 22.5 µM | [13] 24.9 µM | [14] 2.8 µM | [15] 48.5 µM

C=C1C(=O)O[C@H]2[C@H]1[C@H](OC(=O)/C(C)=C\C)C[C@]1(CO1)[C@@H]1[C@H](OC(C)=O)C=C(C)[C@]21O [EUPAROTIN ACETATE]
inactive: [1] 74 µM | [2] 1.24 µM | [3] > 43 µM | [4] 25.5 µM | [5] 17.7 µM | [7] 15.5 µM | [16] 23.1 µM | [8] 21.6 µM | [17] 8.13 µM | [9] 19.3 µM | [10] 13.5 µM | [11] > 83.9 µM | [18] 16.5 µM | [12] 67.5 µM | [13] 17 µM | [14] 15 µM | [19] 14.5 µM | [20] > 56.2 µM | [15] 25.4 µM

C[C@]12CC[C@H]3[C@@H](CC[C@]4(O)C[C@@H](O)CC[C@]34C=O)[C@@]1(O)CC[C@@H]2C1=CC(=O)OC1 [STROPHANTHIDIN]
active: [1] 0.159 µM | [2] 0.562 µM | [5] 0.766 µM | [16] 0.453 µM | [8] 1.07 µM | [17] 0.355 µM | [10] 0.435 µM | [11] 0.457 µM | [13] 0.361 µM | [19] 0.697 µM | [20] 0.682 µM
inactive: [3] 1.23 µM | [4] 1.61 µM | [7] 1.52 µM | [9] 4.27 µM | [18] 2.65 µM | [12] 1.14 µM | [14] 1.25 µM | [15] 1.42 µM
